From patent US9738655B2, “Tetrahydroisoquinolines containing substituted azoles as factor XIa inhibitors” (BRISTOL-MYERS SQUIBB COMPANY, priority 2013, dated 2017)
pKi: −log10 of the molar value. Where a name gives a salt, the structure may show the parent alone. Read-outs that look alike come from different tables or passages of the source.

Legend:
[1] = target: purified human plasma kallikrein (Homo sapiens (Human), UniProt P03952); test: Plasma kallikrein enzyme inhibition assay (chromogenic substrate S-2302); assay type: biochemical
Sequence of purified human plasma kallikrein (P03952 391-638): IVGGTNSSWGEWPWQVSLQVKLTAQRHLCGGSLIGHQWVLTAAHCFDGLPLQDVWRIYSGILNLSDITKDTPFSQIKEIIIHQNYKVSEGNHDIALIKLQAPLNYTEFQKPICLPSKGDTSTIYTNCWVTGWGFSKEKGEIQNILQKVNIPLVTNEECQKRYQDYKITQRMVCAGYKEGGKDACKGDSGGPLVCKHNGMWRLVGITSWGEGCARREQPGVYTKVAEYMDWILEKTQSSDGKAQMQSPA
Sequence of purified human plasma kallikrein (P03952 20-390 partner): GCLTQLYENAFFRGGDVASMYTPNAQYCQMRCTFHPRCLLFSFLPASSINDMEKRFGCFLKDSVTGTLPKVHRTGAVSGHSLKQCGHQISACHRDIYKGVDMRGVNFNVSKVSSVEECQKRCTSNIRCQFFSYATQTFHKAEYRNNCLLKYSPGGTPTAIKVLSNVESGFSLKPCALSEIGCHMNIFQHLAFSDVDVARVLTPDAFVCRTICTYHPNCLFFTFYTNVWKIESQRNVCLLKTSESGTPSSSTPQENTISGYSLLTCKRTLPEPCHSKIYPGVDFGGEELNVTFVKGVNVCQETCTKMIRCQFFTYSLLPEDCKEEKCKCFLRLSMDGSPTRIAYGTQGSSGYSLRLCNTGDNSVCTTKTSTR
Experimental: (§1) The effectiveness of compounds of the present invention as inhibitors of the coagulation Factors XIa, VIIa, IXa, Xa, XIIa, plasma kallikrein or thrombin, can be determined using a relevant purified serine protease, respectively, and an appropriate synthetic substrate. The rate of hydrolysis of the chromogenic or fluorogenic substrate by the relevant serine protease was measured both in the absence and presence of compounds of the present invention. […] A decrease in the rate of absorbance or fluorescence change in the presence of inhibitor is indicative of enzyme inhibition. […] The results of this assay are expressed as the inhibitory constant, Ki.
(§2) Values of Ki were determined by allowing the protease to react with the substrate in the presence of the inhibitor.
The following relationships were used to calculate Ki values: (Vmax*S)/(Km+S); (vo−vs)/vs=I/(Ki(1+S/Km)) for a competitive inhibitor with one binding site; or vs/vo=A+((B−A)/1+((IC50/(I)n))); and Ki−IC50/((1+S/Km) for a competitive inhibitor where:

[2] = target: purified human Factor XIa (Homo sapiens (Human), UniProt P03951); test: Factor XIa enzyme inhibition assay (chromogenic substrate S-2366); details: read-out: Factor XIa Ki
Sequence of purified human Factor XIa (P03951 388-625): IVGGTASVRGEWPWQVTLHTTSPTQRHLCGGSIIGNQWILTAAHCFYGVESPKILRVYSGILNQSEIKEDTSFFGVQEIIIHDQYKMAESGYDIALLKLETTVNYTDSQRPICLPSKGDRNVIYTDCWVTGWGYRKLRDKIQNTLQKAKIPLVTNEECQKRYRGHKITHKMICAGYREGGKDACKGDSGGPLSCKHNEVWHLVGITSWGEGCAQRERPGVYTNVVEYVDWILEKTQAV
Sequence of purified human Factor XIa (P03951 19-387 partner): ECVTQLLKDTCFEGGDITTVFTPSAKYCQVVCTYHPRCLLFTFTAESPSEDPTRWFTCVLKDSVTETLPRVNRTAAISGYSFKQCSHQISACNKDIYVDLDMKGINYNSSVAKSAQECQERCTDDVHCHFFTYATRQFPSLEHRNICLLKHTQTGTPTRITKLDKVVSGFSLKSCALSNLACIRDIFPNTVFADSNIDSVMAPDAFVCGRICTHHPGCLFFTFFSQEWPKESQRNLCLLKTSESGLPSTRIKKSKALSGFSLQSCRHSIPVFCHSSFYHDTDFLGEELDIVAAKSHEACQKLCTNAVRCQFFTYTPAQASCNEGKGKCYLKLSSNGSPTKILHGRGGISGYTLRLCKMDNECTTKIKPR
Experimental: as §1, §2

[3] = measured at 25° C. (no asterisk)
[4] = measured at 25° C. (no asterisk), TFA salt

| Compound | pKi ([2]; measured at 25° C.) | pKi ([1]; measured at 37° C. (*)) | pKi [1, 4] | pKi ([2]; measured at 25° C., TFA salt) | other results |
| --- | --- | --- | --- | --- | --- |
| CC(CO)(CO)COC(C)(C)C1CCN(c2cccc3c2CCN(C(=O)c2cnn(-c4cccc(Cl)c4F)c2)C3C(=O)Nc2ccc(C(=O)O)cc2)CC1 (stereo not drawn) [Example 225, 4-(2-(1-(3-Chloro-2-fluorophenyl)-1H-pyrazole-4-carbonyl)-5-(4-(2-(3-hydroxy-2-(hydroxymethyl)-2-methylpropoxy)propan-2-yl)piperidin-1-yl)-1,2,3,4-tetrahydroisoquinoline-1-carboxamido)benzoic acid, TFA salt] | > 8.30 |  |  |  | pKi [1, 3]: 7.31 |
| O=C(O)c1ccc(NC(=O)C2c3cccc(N4CCN(C5COC5)CC4)c3CCN2C(=O)c2cn(-c3cccc(Cl)c3F)nn2)cc1 (stereo not drawn) [Example 226, 4-(2-(1-(3-Chloro-2-fluorophenyl)-1H-1,2,3-triazole-4-carbonyl)-5-(4-(oxetan-3-yl)piperazin-1-yl)-1,2,3,4-tetrahydroisoquinoline-1-carboxamido)benzoic acid, TFA salt] | > 8.30 |  |  |  | pKi [1, 3]: 8.12 |
| O=C(O)c1ccc(NC(=O)C2c3cccc(N4CCN(CC(F)(F)F)CC4)c3CCN2C(=O)c2cn(-c3cccc(Cl)c3F)nn2)cc1 (stereo not drawn) [Example 229, 4-(2-(1-(3-Chloro-2-fluorophenyl)-1H-1,2,3-triazole-4-carbonyl)-5-(4-(2,2,2-trifluoroethyl)piperazin-1-yl)-1,2,3,4-tetrahydroisoquinoline-1-carboxamido) benzoic acid, TFA salt] | > 8.30 | 6.91 |  |  |  |
| O=C(O)c1ccc(NC(=O)[C@@H]2c3cccc(N4CCN(CC(F)(F)F)CC4)c3CCN2C(=O)[C@H]2CC(c3cccc(Cl)c3F)=NO2)cc1 [Example 230, 4-((S)-2-((R)-3-(3-Chloro-2-fluorophenyl)-4,5-dihydroisoxazole-5-carbonyl)-5-(4-(2,2,2-trifluoroethyl)piperazin-1-yl)-1,2,3,4-tetrahydroisoquinoline-1-carboxamido)benzoic acid, 2 TFA salt] |  | 7.91 |  |  | pKi [2]: > 8.30 |
| O=C(O)c1ccc(NC(=O)[C@H]2c3cccc(N4CCN(CC(F)(F)F)CC4)c3CCN2C(=O)[C@H]2CC(c3cccc(Cl)c3F)=NO2)cc1 [Example 231, 4-((R)-2-((R)-3-(3-Chloro-2-fluorophenyl)-4,5-dihydroisoxazole-5-carbonyl)-5-(4-(2,2,2-trifluoroethyl)piperazin-1-yl)-1,2,3,4-tetrahydroisoquinoline-1-carboxamido)benzoic acid, 2 TFA salt] | 6.87 | 5.89 |  |  |  |
| COC(=O)c1ccc(NC(=O)[C@@H]2c3cccc(N4CCN(C5COC5)CC4)c3CCN2C(=O)[C@H]2CC(c3cccc(Cl)c3F)=NO2)cc1 [Example 232, Methyl 4-((S)-2-((R)-3-(3-chloro-2-fluorophenyl)-4,5-dihydroisoxazole-5-carbonyl)-5-(4-(oxetan-3-yl)piperazin-1-yl)-1,2,3,4-tetrahydroisoquinoline-1-carboxamido)benzoate, 2 TFA salt] | 5.38 | 7.53 |  |  |  |
| COC(=O)c1ccc(NC(=O)[C@H]2c3cccc(N4CCN(C5COC5)CC4)c3CCN2C(=O)[C@H]2CC(c3cccc(Cl)c3F)=NO2)cc1 [Example 233, Methyl 4-((R)-2-((R)-3-(3-chloro-2-fluorophenyl)-4,5-dihydroisoxazole-5-carbonyl)-5-(4-(oxetan-3-yl)piperazin-1-yl)-1,2,3,4-tetrahydroisoquinoline-1-carboxamido)benzoate, 2 TFA salt] | 8.26 | < 4.89 |  |  |  |
| Cn1ncnc1-c1cccc2c1CCN(C(=O)c1cn(-c3cccc(Cl)c3F)nn1)C2C(=O)Nc1ccc(C(=O)O)cc1 (stereo not drawn) [Example 245, 4-(2-(1-(3-Chloro-2-fluorophenyl)-1H-1,2,3-triazole-4-carbonyl)-5-(1-methyl-1H-1,2,4-triazol-5-yl)-1,2,3,4-tetrahydroisoquinoline-1-carboxamido)benzoic acid, TFA salt] | > 8.30 | 7.17 |  |  |  |
| Cn1cnc(-c2cccc3c2CCN(C(=O)c2cn(-c4cccc(Cl)c4F)nn2)C3C(=O)Nc2ccc(C(=O)O)cc2)c1 (stereo not drawn) [Example 246, 4-(2-(1-(3-Chloro-2-fluorophenyl)-1H-1,2,3-triazole-4-carbonyl)-5-(1-methyl-1H-imidazol-4-yl)-1,2,3,4-tetrahydroisoquinoline-1-carboxamido)benzoic acid, TFA salt] | > 8.30 | 7.53 |  |  |  |
| O=C(O)c1ccc(NC(=O)C2c3cccc(-n4cnnc4)c3CCN2C(=O)c2cn(-c3cccc(Cl)c3F)nn2)cc1 (stereo not drawn) [Example 249, 4-(2-(1-(3-Chloro-2-fluorophenyl)-1H-1,2,3-triazole-4-carbonyl)-5-(4H-1,2,4-triazol-4-yl)-1,2,3,4-tetrahydroisoquinoline-1-carboxamido)benzoic acid, TFA salt] | > 8.30 | 7.69 |  |  |  |
| Cc1ncn(-c2cccc3c2CCN(C(=O)[C@H]2CC(c4cccc(Cl)c4F)=NO2)[C@@H]3C(=O)Nc2ccc(C(=O)O)cc2)n1 [Example 250, 4-((S)-2-((R)-3-(3-Chloro-2-fluorophenyl)-4,5-dihydroisoxazole-5-carbonyl)-5-(3-methyl-1H-1,2,4-triazol-1-yl)-1,2,3,4-tetrahydroisoquinoline-1-carboxamido)benzoic acid, TFA salt] | > 8.30 | 8.17 |  |  |  |
| Cc1ncn(-c2cccc3c2CCN(C(=O)[C@H]2CC(c4cccc(Cl)c4F)=NO2)[C@H]3C(=O)Nc2ccc(C(=O)O)cc2)n1 [Example 251, 4-((R)-2-((R)-3-(3-Chloro-2-fluorophenyl)-4,5-dihydroisoxazole-5-carbonyl)-5-(3-methyl-1H-1,2,4-triazol-1-yl)-1,2,3,4-tetrahydroisoquinoline-1-carboxamido)benzoic acid, TFA salt] | 7.83 | 6.22 |  |  |  |
| COC1CCN(c2cccc3c2CCN(C(=O)C2CC(=O)N(c4cccc(Cl)c4F)C2)C3C(=O)Nc2ccc(C(=O)O)cc2)CC1 (stereo not drawn) [Example 255, 4-(2-(1-(3-chloro-2-fluorophenyl)-5-oxopyrrolidine-3-carbonyl)-5-(4-methoxypiperidin-1-yl)-1,2,3,4-tetrahydroisoquinoline-1-carboxamido)benzoic acid, TFA salt] |  |  | 6.66 | 8.15 |  |
| COC1CCN(c2cccc3c2CCN(C(=O)C2CC(c4c(F)ccc(Cl)c4F)=NO2)C3C(=O)Nc2ccc(C(=O)O)cc2)CC1 (stereo not drawn) [Example 256, 4-(2-(3-(3-chloro-2,6-difluorophenyl)-4,5-dihydroisoxazole-5-carbonyl)-5-(4-methoxypiperidin-1-yl)-1,2,3,4-tetrahydroisoquinoline-1-carboxamido)benzoic acid, TFA salt] |  |  | 6.70 | 7.90 |  |
| COC1CCN(c2cccc3c2CCN(C(=O)C2CC(c4c(F)ccc(Cl)c4F)=NO2)C3C(=O)Nc2ccc(C(=O)O)cc2)CC1 (stereo not drawn) [Example 257, 4-(2-(3-(3-chloro-2,6-difluorophenyl)-4,5-dihydroisoxazole-5-carbonyl)-5-(4-methoxypiperidin-1-yl)-1,2,3,4-tetrahydroisoquinoline-1-carboxamido)benzoic acid, TFA salt] |  |  | 7.62 | > 8.30 |  |
| COC1CCN(c2cccc3c2CCN(C(=O)C2CC(=O)N(c4cccc(Cl)c4F)C2)C3C(=O)Nc2ccc(C(=O)O)cc2)CC1 (stereo not drawn) [Example 260, 4-(2-(1-(3-chloro-2-fluorophenyl)-5-oxopyrrolidine-3-carbonyl)-5-(4-methoxypiperidin-1-yl)-1,2,3,4-tetrahydroisoquinoline-1-carboxamido)benzoic acid, TFA salt] |  |  | 5.32 | 5.61 |  |
| CC(C)(O)C1CCN(c2cccc3c2CCN(C(=O)C2CC(c4cccc(Cl)c4F)=NO2)C3C(=O)Nc2ccc(C(=O)O)cc2)CC1 (stereo not drawn) [Example 262, 4-(2-(3-(3-chloro-2-fluorophenyl)-4,5-dihydroisoxazole-5-carbonyl)-5-(4-(2-hydroxypropan-2-yl)piperidin-1-yl)-1,2,3,4-tetrahydroisoquinoline-1-carboxamido)benzoic acid, TFA salt] |  |  | 8.36 | > 8.30 |  |
| CC(C)(O)C1CCN(c2cccc3c2CCN(C(=O)C2CC(c4cccc(Cl)c4F)=NO2)C3C(=O)Nc2ccc(C(=O)O)cc2)CC1 (stereo not drawn) [Example 263, 4-(2-(3-(3-chloro-2-fluorophenyl)-4,5-dihydroisoxazole-5-carbonyl)-5-(4-(2-hydroxypropan-2-yl)piperidin-1-yl)-1,2,3,4-tetrahydroisoquinoline-1-carboxamido)benzoic acid, TFA salt] |  |  | 7.17 | 7.94 |  |
| COC1CCN(c2cccc3c2CCN(C(=O)C2(C)CC(c4cccc(Cl)c4F)=NO2)C3C(=O)Nc2ccc(C(=O)O)cc2)CC1 (stereo not drawn) [Example 266, 4-(2-(3-(3-chloro-2-fluorophenyl)-5-methyl-4,5-dihydroisoxazole-5-carbonyl)-5-(4-methoxypiperidin-1-yl)-1,2,3,4-tetrahydroisoquinoline-1-carboxamido)benzoic acid, TFA salt] |  |  | 6.16 | 6.38 |  |
| COC1CCN(c2cccc3c2CCN(C(=O)C2(C)CC(c4cccc(Cl)c4F)=NO2)C3C(=O)Nc2ccc(C(=O)O)cc2)CC1 (stereo not drawn) [Example 267, 4-(2-(3-(3-chloro-2-fluorophenyl)-5-methyl-4,5-dihydroisoxazole-5-carbonyl)-5-(4-methoxypiperidin-1-yl)-1,2,3,4-tetrahydroisoquinoline-1-carboxamido)benzoic acid, TFA salt] |  |  | 6.45 | 6.99 |  |
| COC1CCN(c2cccc3c2CCN(C(=O)c2cn(-c4cccc(Cl)c4F)cn2)[C@H]3C(=O)Nc2ccc(C(=O)O)cc2)CC1 [Example 272, (R)-4-(2-(1-(3-chloro-2-fluorophenyl)-1H-imidazole-4-carbonyl)-5-(4-methoxypiperidin-1-yl)-1,2,3,4-tetrahydroisoquinoline-1-carboxamido)benzoic acid, TFA salt] | 6.01 | < 5.22 |  |  |  |
